Target: T1, human M2 receptor (Homo sapiens, UniProt P08172)
T1 construct: expressed in transfected cells; host or cells: CHO-DUKX (CHO-DUKX-M2-GIRK)
T1 sequence (P08172 1-466): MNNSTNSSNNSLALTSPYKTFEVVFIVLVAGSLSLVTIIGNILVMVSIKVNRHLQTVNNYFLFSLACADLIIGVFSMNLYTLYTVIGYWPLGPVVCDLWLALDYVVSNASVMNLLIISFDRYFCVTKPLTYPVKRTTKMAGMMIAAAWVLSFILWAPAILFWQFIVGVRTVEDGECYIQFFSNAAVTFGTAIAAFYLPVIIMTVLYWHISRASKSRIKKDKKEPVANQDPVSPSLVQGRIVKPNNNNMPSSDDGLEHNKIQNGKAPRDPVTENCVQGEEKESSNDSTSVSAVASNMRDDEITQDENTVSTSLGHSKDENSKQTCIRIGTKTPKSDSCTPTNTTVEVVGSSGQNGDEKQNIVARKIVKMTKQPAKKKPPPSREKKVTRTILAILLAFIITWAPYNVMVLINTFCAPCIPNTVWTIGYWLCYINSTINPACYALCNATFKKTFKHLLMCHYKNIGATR
Test: Functional M2-GIRK1/4 activation test: allosteric potency (EC50) and efficiency at EC20 acetylcholine
Format: cell-based
Settings: CHO-DUKX-M2-GIRK cells; for EC50: voltage-sensitive dye, acetylcholine at EC20, in some cases mean of two or more determinations; for Emax: boosting of the acetylcholine effect at EC20 acetylcholine concentration
In short: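 Positive allosteric modulation measured as boosting of an EC20 acetylcholine response: hyperpolarization via GIRK1/4 in CHO-DUKX-M2-GIRK cells, monitored by membrane-potential dye fluorescence over 60 s after agonist, compound preadded. Hill-function fit gives EC50 and efficiency.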

| EC50 [nM] | Emax [%] | Structure (SMILES) |
| --- | --- | --- |
| 16 | 98 | C[C@@H](NC(=O)c1cn(-c2c(F)cc(F)cc2F)c2nc(N3C[C@@H](O)[C@H](O)C3)c(F)cc2c1=O)C1CC1 [Example 19, N-[(1R)-1-cyclopropylethyl]-7-[(3R,4R)-3,4-dihydroxypyrrolidin-1-yl]-6-fluoro-4-oxo-1-(2,4,6-trifluorophenyl)-1,4-dihydro-1,8-naphthyridine-3-carboxamide] |
| 13 | 92 | C[C@H](NC(=O)c1cn(-c2c(F)cc(F)cc2F)c2nc(N3C[C@@H](O)[C@H](O)C3)c(F)cc2c1=O)C1CC1 [Example 20, N-[(1S)-1-cyclopropylethyl]-7-[(3R,4R)-3,4-dihydroxypyrrolidin-1-yl]-6-fluoro-4-oxo-1-(2,4,6-trifluorophenyl)-1,4-dihydro-1,8-naphthyridine-3-carboxamide] |
| 3 | 100 | O=C(NC(C1CC1)C1CC1)c1cn(-c2c(F)cc(F)cc2F)c2nc(N3C[C@@H](O)[C@H](O)C3)c(F)cc2c1=O [Example 21, N-(dicyclopropylmethyl)-7-[(3R,4R)-3,4-dihydroxypyrrolidin-1-yl]-6-fluoro-4-oxo-1-(2,4,6-trifluorophenyl)-1,4-dihydro-1,8-naphthyridine-3-carboxamide] |
| 4.03 | 100 | CCC(COC(F)(F)F)NC(=O)c1cn(-c2c(F)cc(F)cc2F)c2nc(N3C[C@@H](O)[C@H](O)C3)c(F)cc2c1=O (stereo partly drawn) [Example 26, 7-[(3R,4R)-3,4-dihydroxypyrrolidin-1-yl]-6-fluoro-4-oxo-N-[(2)-1-(trifluoromethoxy)butan-2-yl]-1-(2,4,6-trifluorophenyl)-1,4-dihydro-1,8-naphthyridine-3-carboxamide] |
| 2.9 | 100 | CC[C@H](NC(=O)c1cn(-c2c(F)cc(F)cc2F)c2nc(N3C[C@@H](O)[C@H](OC(C)=O)C3)c(F)cc2c1=O)C(F)(F)F [Example 35, (3R,4R)-1-[3-Fluoro-5-oxo-6-{[(2S)-1,1,1-trifluorobutan-2-yl]carbamoyl}-8-(2,4,6-trifluoro-phenyl)-5,8-dihydro-1,8-naphthyridin-2-yl]-4-hydroxypyrrolidin-3-yl acetate] |
| 10.1 | 100 | CC[C@H](NC(=O)c1cn(-c2c(F)cc(F)cc2F)c2nc(N3C[C@@H](O)[C@H](O)C3)c(Cl)cc2c1=O)C(F)(F)F [Example 38, 6-chloro-7-[(3R,4R)-3,4-dihydroxypyrrolidin-1-yl]-4-oxo-N-[(2S)-1,1,1-trifluorobutan-2-yl]-1-(2,4,6-trifluorophenyl)-1,4-dihydro-1,8-naphthyridine-3-carboxamide] |
| 2.3 | 98 | CC[C@H](NC(=O)c1cn(-c2c(F)cc(F)cc2Cl)c2nc(N3C[C@@H](O)[C@H](O)C3)c(F)cc2c1=O)C(F)(F)F [Example 40, 1-(2-chloro-4,6-difluorophenyl)-7-[(3R,4R)-3,4-dihydroxypyrrolidin-1-yl]-6-fluoro-4-oxo-N-[(2S)-1,1,1-trifluorobutan-2-yl]-1,4-dihydro-1,8-naphthyridine-3-carboxamide] |
| 4 | 100 | O=C(N[C@@H](C1CC1)C(F)(F)F)c1cn(-c2c(F)cc(F)cc2Cl)c2nc(N3C[C@@H](O)[C@H](O)C3)c(F)cc2c1=O [Example 42, 1-(2-chloro-4,6-difluorophenyl)-N-[(1S)-1-cyclopropyl-2,2,2-trifluoroethyl]-7-[(3R,4R)-3,4-dihydroxypyrrolidin-1-yl]-6-fluoro-4-oxo-1,4-dihydro-1,8-naphthyridine-3-carboxamide] |
| 7.5 | 100 | C[C@H](NC(=O)c1cn(-c2c(F)cc(F)cc2Cl)c2nc(N3C[C@@H](O)[C@H](O)C3)c(F)cc2c1=O)C1CC1 [Example 43, 1-(2-chloro-4,6-difluorophenyl)-N-[(1S)-1-cyclopropylethyl]-7-[(3R,4R)-3,4-dihydroxypyrrolidin-1-yl]-6-fluoro-4-oxo-1,4-dihydro-1,8-naphthyridine-3-carboxamide] |
